Measured values as given in patent US20220153782A1, “COMPOUNDS, COMPOSITIONS AND METHODS FOR TREATING A NEUROLOGICAL CONDITION” (MEMORYPLUS LTD., priority 2019, published 2022).
“Also recorded” adds a separate entry of the source. Where a SMILES comes first, the peptide text is derived from it. [ ]: non-standard residue; d: D form. The star is where a group is joined. ξ: configuration not given here. Myristoyl = CCCCCCCCCCCCCC(=O)*; dThr(3ξ) = CC(O)[C@@H](N)C(=O)O; Lauroyl = CCCCCCCCCCCC(=O)*; ξIle = CC[C@H](C)C(N)C(=O)O

Columns and labels:
[1] = system: in vitro 2D human BBB model (hCMEC/D3 and human astrocytes SC-1800); conditions: brain permeable peptide, literature; cited from earlier work
[2] = Liver stability (liver homogenate); type: in vitro ADME, mouse; conditions: for half-life: mouse, liver homogenate
From the text: (§1) N, 3 independent experiments.
Liver stability (mouse). Clearance of peptide therapeutics is highly dependent on the high metabolism occurring by liver enzymes able to degrade within minutes the total dose of peptide reaching the bloodstream after intravenous, other parenteral and non-invasive (oral and nasal routes). Peptides with good plasma and liver stability are more likely to remain in circulation and thus elicit higher levels if peptide is brain permeable across the BBB via invasive and non-invasive routes.

[3] = Self-assembly (Thioflavin T, critical aggregate concentration) and TEM; type: physicochemical; conditions: aqueous media, ThT
From the text: Peptides were able to aggregate in aqueous media and interact with Thioflavin T (ThT). ThT can be immobilized in fibrils/aggregates resulting in an increase in fluorescence. Dodecanoyl-[…] and Myristoyl-[…] result in lower critical aggregate concentrations (CAC) that is ˜5-fold lower from their equivalent lipidized peptides with a threonine. […] CAC is ˜20-fold smaller for myristoylated peptides compared to dodecanoyl peptides. […] This conserved structure can explain the increased stability and likely the success in solubilizing/stabilizing the peptide aggregates in hydroxyl-b-propyl cyclodextrin.

in vitro = conditions: human; for Papp at 200 μM: BBB permeability; for Papp: Papp0-4 h experiment 2
Experimental: (§2) The in vitro permeability across a human 2D blood-brain Transwell model (hCMEC/D3 and human astrocytes SC-1800) was tested and enabled the calculation of the apparent permeability coefficient (Papp) for all peptides.

[4] = system: in vitro 2D human BBB model (hCMEC/D3 and human astrocytes SC-1800); test: in vitro
Experimental: as §2

Plasma stability (mouse) = type: in vitro ADME; conditions: for half-life: mouse, plasma; for half-life / k: one phase decay
From the text: as §1
(§3) Plasma stability. […] Based on the higher lipophilicity of myristoylated peptides, dodecanoyl peptides are expected to be less protein bound and a higher percentage of the peptide will be available for permeation across biological barriers such as the BBB (only free fraction is available for transport). Thus, Dodecanoyl-[…] is a likely candidate for further development.

[5] = Stability in simulated intestinal fluid; type: in vitro ADME; conditions: one phase decay
From the text: as §1
Simulated intestinal fluids. The first hurdle that a peptide faces upon oral delivery is the high salt and acidic environment of the stomach that can denature the therapeutic peptide as well as the action of pepsin. Enteric coating can overcome this first hurdle easily with currently available industrial processes. Thus, we assessed the stability of the lipidized peptides in simulated intestinal fluids from non-fasted animals i.e. soluble fraction of digestive enzymes present in the upper gastrointestinal (and the major absorptive site for peptides). This soluble fraction contains pancreatic proteases such as trypsin and chymotrypsin, carboxypeptidases and aminopeptidases able to hydrolyse peptides down to di- or tripeptides. […] However, permeability across the BBB needs to be taken into consideration.

[6] = Brain stability (brain homogenate); type: in vitro ADME, mouse; conditions: for brain stability (comparative): longer half-lives; for half-life: mouse, brain homogenate
From the text: as §1

Plasma stability (human) = type: in vitro ADME; conditions: for k / half-life: human plasma, one phase decay; for half-life: human, plasma
From the text: as §1, §3

[7] = Physicochemical properties (water solubility)
APP/PS1 mice = test: Contextual fear conditioning, APP/PS1 mice; type: in vivo, mouse
Experimental: Use of peptides in vivo with osmotic pumps. APP/PS1 (a mouse model of Alzheimer's disease) and WT mice were anesthetized with isofluorane, and i.c.v. delivery cannulas (brain alzet kit III) were implanted with a stereotaxic frame at the following coordinates according to the bregma: AP, −0.5 mm; ML, 1 mm; and DV, −2.2 mm. Osmotic minipumps (Alzet; model #1004) were filled with the peptides (Dodecanoyl-[…] (conjugate of peptide SEQ ID 2) or Dodecanoyl-[…] (conjugate of peptide SEQ ID 1), 10 μM peptide in 2 mM in cyclodextrin) or with vehicle (cyclodextrin), and equilibrated in 0.9% NaCl at 37° C. for 48 hr. They were attached to the i.c.v. cannula tubing and subcutaneously implanted at the back. After 21 days, behavioral testing was started. Animal manipulation and data analysis were carried out blind with respect to genotype and treatment.
Fear conditioning. In this test, mice form an association between a certain context (an experimental cage/tone) and an aversive event (a foot shock) that takes place in that context. […] Training and testing took place in a rodent observation cage (30×37×25 cm) that was placed in a sound attenuating chamber. In the training (conditioning), the mouse was exposed to the conditioning context (180 sec) followed by a tone (CS, 20 sec, 2 kHz, 85 dB). After termination of the tone, a foot shock (US, 0.75 mA, 2 sec) was delivered through a stainless-steel grid floor. Mice received three foot shocks with an intertrial interval of 60 s. The mouse was removed from the fear conditioning box 30 sec after shock termination and returned to their home cages. Testing: In the contextual fear conditioning version, mice were placed back into the original training context for 8 min, during which no foot shock was delivered. […] The animals' behavior was scored by an observer blind to the treatment conditions. Using a time-sampling procedure every 2 s, each mouse was scored blindly as either freezing or active at the instant the sample was taken. […]

[8] = liver, one phase decay, read-out: t1/2 (h)
[9] = liver, one phase decay, read-out: t1/2 (min)
[10] = brain, one phase decay, read-out: t1/2 (h)
[11] = brain, one phase decay, read-out: t1/2 (min)

Experimental for hCMEC/D3 cells: Cell metabolic activity was calculated in Human cerebral microvascular endothelial cells (hCMEC/D3) after exposure to the peptides at various concentrations for 4 or 24 hours (n=3, FIG. 7).
At the specified time points, the MTT solution (20 μL at 5 mg mL^−1 solution in PBS) were added to each well and cells were incubated for 4 hours at 37° C. Subsequently, DMSO (100 μL) was added to dissolve the formazan crystals and absorbance was measured at 570 and 690 nm using Multiskan Go microplate spectrophotometer and data were analysed using the SkanIt software (Thermo Scientific, Paisley, UK). Cell metabolic activity was calculated by subtracting the values at 690 nm from 570 nm to remove background, and dividing the values by the control to express as a percentage (%) of the control (0.5% DMSO):

Angiopep-2
Papp, previous reported value [1]: 8.69±1.53 ×10^−6 cm/s

CCCCCCCCCCCCCC(=O)N[C@@H](CCC(N)=O)C(=O)N[C@@H](Cc1c[nH]cn1)C(=O)N[C@@H](CO)C(=O)N[C@@H](CCC(N)=O)C(=O)N[C@H](C(=O)N[C@H](C(=O)N[C@@H](CCCCN)C(=O)N[C@H](C(=O)O)C(C)C)[C@@H](C)O)[C@@H](C)CC (Myristoyl-QHSQITKV-OH; C-terminus assumed)
k ([2]; liver, one phase decay): 0.5092 h⁻¹
half-life ([2]; liver (mouse), read-out: half-life (converted)): 1.4 h
half-life [2, 8]: 1.36 h
half-life [2, 9]: 1.36 h
critical aggregate concentration (CAC), lower than equivalent lipidized peptide with a threonine [3]: ~5 fold
Papp at 200 μM (in vitro): < 3.77 ×10⁻⁶ cm/s
Papp (in vitro): 2.63 ± 0.0786 ×10⁻⁶ cm/s
BBB permeability [4]: poor
Cell viability (hCMEC/D3 cells): +
recovery of cells at 24 hours (hCMEC/D3 cells): did not recover
remaining at 2 h (Plasma stability (mouse); after 2 hours of incubation, read-out: peptide remaining): ~50%
stability in mouse plasma (comparative) (Plasma stability (mouse); longer half-lives): more plasma stable
half-life (Plasma stability (mouse); read-out: t1/2 (h)): 0.869 h
half-life (Plasma stability (mouse); read-out: t1/2 (min)): 0.869 h
k (Plasma stability (mouse)): 0.7972 h⁻¹
k [5]: 0.1534 h⁻¹
half-life ([5]; read-out: t1/2 (h)): 4.52 h
half-life ([5]; read-out: t1/2 (min)): 4.52 h
brain stability (comparative) ([6]; brain (mouse)): more brain stable
k ([6]; brain, one phase decay): 2.714 h⁻¹
half-life ([6]; brain (mouse), read-out: half-life (converted)): 0.26 h
half-life [6, 10]: 0.255 h
half-life [6, 11]: 0.255 h
k (Plasma stability (human)): 0.3116 h⁻¹
half-life (Plasma stability (human); read-out: t1/2 (h)): 2.22 h
half-life (Plasma stability (human); read-out: t1/2 (min)): 2.22 h
water solubility (comparative with threonine analogue) [7]: higher water solubility

CCCCCCCCCCCC(=O)N[C@@H](CCC(N)=O)C(=O)N[C@H](Cc1c[nH]cn1)C(=O)N[C@@H](CO)C(=O)N[C@H](CCC(N)=O)C(=O)NC(C(=O)N[C@@H](C(=O)N[C@@H](CCCCN)C(=O)N[C@@H](C(=O)O)C(C)C)C(C)O)[C@@H](C)CC (stereo partly shown) (Lauroyl-Q[dH]S[dQ][ξIle][dThr(3ξ)]K[dV]-OH)
k ([2]; liver, one phase decay): 1.146 h⁻¹
half-life [2, 8]: 0.605 h
half-life [2, 9]: 0.605 h
Papp at 200 μM (in vitro): > 3.77 ×10⁻⁶ cm/s
Papp (in vitro): 5.57 ± 0.289 ×10⁻⁶ cm/s
BBB permeability [4]: good
freezing behavior compared with the myristoyl peptide (APP/PS1 mice; FIG. 5): more than the myristoyl peptide
increase in freezing compared to myristoyl-QHSQITKV (APP/PS1 mice; fear conditioning test): 36%
contextual fear conditioning performance (freezing behavior) (APP/PS1 mice; i.c.v. infusion 3-4 weeks, vs vehicle, FIG. 4B): improved the performance; also recorded: enhance freezing behavior
Cell viability (hCMEC/D3 cells): +++++
cell viability (hCMEC/D3 cells): good
half-life (Plasma stability (mouse); read-out: t1/2 (h)): 0.151 h
half-life (Plasma stability (mouse); read-out: t1/2 (min)): 0.151 h
k (Plasma stability (mouse)): 4.595 h⁻¹
k [5]: 0.2337 h⁻¹
half-life ([5]; read-out: t1/2 (h)): 2.97 h
half-life ([5]; read-out: t1/2 (min)): 2.97 h
brain stability (comparative) ([6]; brain (mouse)): more brain stable
k ([6]; brain, one phase decay): 1.901 h⁻¹
half-life [6, 10]: 0.365 h
half-life [6, 11]: 0.365 h
human plasma stability (Plasma stability (human)): good
k (Plasma stability (human)): 0.2102 h⁻¹
half-life (Plasma stability (human); read-out: t1/2 (h)): 3.3 h
half-life (Plasma stability (human); read-out: t1/2 (min)): 3.3 h

CCCCCCCCCCCCCC(=O)N[C@@H](CCC(N)=O)C(=O)N[C@@H](Cc1c[nH]cn1)C(=O)N[C@H](C(=O)N[C@@H](CCC(N)=O)C(=O)N[C@H](C(=O)N[C@H](C(=O)N[C@@H](CCCCN)C(=O)N[C@H](C(=O)O)C(C)C)[C@@H](C)O)[C@@H](C)CC)[C@@H](C)O (Myristoyl-QHTQITKV-OH; C-terminus assumed)
k ([2]; liver, one phase decay): 0.03747 h⁻¹
k (fast) ([2]; liver, two phase decay, fast): 3.051 (fast), h^−1
k (slow) ([2]; liver, two phase decay, slow): 0.00046 h⁻¹
half-life [2, 8]: 18.5 h
half-life [2, 9]: 18.5 h
half-life ([2]; liver, two phase decay, fast, read-out: t1/2 (h) (fast) (converted)): 0.227 h
half-life ([2]; liver, two phase decay, fast, read-out: t1/2 (min) (fast)): 0.227 h
half-life ([2]; liver, two phase decay, slow, read-out: t1/2 (h) (slow) (converted)): 1510 h
half-life ([2]; liver, two phase decay, slow, read-out: t1/2 (min) (slow)): 1510 h
Papp at 200 μM (in vitro): 2.63 to 5.57 ×10⁻⁶ cm/s
Papp (in vitro): 3.77 ± 0.386 ×10⁻⁶ cm/s
Cell viability (hCMEC/D3 cells): +++++
half-life (Plasma stability (mouse); read-out: t1/2 (h)): 0.112 h
half-life (Plasma stability (mouse); read-out: t1/2 (min)): 0.112 h
k (Plasma stability (mouse)): 6.172 h⁻¹
k [5]: 0.2490 h⁻¹
k ([6]; brain, one phase decay): 4.204 h⁻¹
half-life [6, 10]: 0.165 h
half-life [6, 11]: 0.165 h
k (Plasma stability (human)): 1.604 h⁻¹
half-life (Plasma stability (human); read-out: t1/2 (h)): 0.432 h
half-life (Plasma stability (human); read-out: t1/2 (min)): 0.432 h
physicochemical properties for successful development [7]: poor
